# Measured values taken from PubChem BioAssay AID248 (DTP/NCI, 2004).
# Several values for one entry are separate records, joined by “and”; a condition that tells them apart may be missing. Equal values may be shown once. Toxic doses and inconclusive results are not listed.
# Tested on: L1210 leukemia ip in BDF1 mice, survival T/C
# Assay: NCI In Vivo Anticancer Drug Screen. Data for tumor model L1210 Leukemia (intraperitoneal) in B6D2F1 (BDF1) mice
# Conditions: higher = longer survival
# Procedure, shortened: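 In this screen, tumor-bearing mice given compound are compared to those given vehicle, and their survival values are reported as a treated-to-control quotient.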
# [1] = endpoint: mean survival time, dose: 25.0 mg/kg/injection, schedule: Q04DX003 (ip), vehicle: saline
# [2] = endpoint: mean survival time, dose: 50.0 mg/kg/injection, schedule: Q04DX003 (ip), vehicle: saline
# [3] = endpoint: mean survival time, dose: 100.0 mg/kg/injection, schedule: Q04DX003 (ip), vehicle: saline
# [4] = endpoint: mean survival time, dose: 25.0 mg/kg/injection, schedule: Q04DX002 (ip), vehicle: saline
# [5] = endpoint: mean survival time, dose: 50.0 mg/kg/injection, schedule: Q04DX002 (ip), vehicle: saline
# [6] = endpoint: mean survival time, dose: 100.0 mg/kg/injection, schedule: Q01DX009 (ip), vehicle: Klucel (hydroxypropylcellulose) (HPC)
# [7] = endpoint: mean survival time, dose: 200.0 mg/kg/injection, schedule: Q01DX009 (ip), vehicle: Klucel (hydroxypropylcellulose) (HPC)
# [8] = endpoint: mean survival time, dose: 100.0 mg/kg/injection, schedule: Q04DX002 (ip), vehicle: Klucel (hydroxypropylcellulose) (HPC)
# [9] = endpoint: mean survival time, dose: 200.0 mg/kg/injection, schedule: Q04DX002 (ip), vehicle: Klucel (hydroxypropylcellulose) (HPC)
# [10] = endpoint: mean survival time, dose: 400.0 mg/kg/injection, schedule: Q04DX002 (ip), vehicle: Klucel (hydroxypropylcellulose) (HPC)
# [11] = endpoint: mean survival time, dose: 100.0 mg/kg/injection, schedule: Q01DX001 (ip), vehicle: saline
# [12] = endpoint: mean survival time, dose: 200.0 mg/kg/injection, schedule: Q01DX001 (ip), vehicle: saline
# [13] = endpoint: mean survival time, dose: 400.0 mg/kg/injection, schedule: Q01DX001 (ip), vehicle: saline
# [14] = endpoint: mean survival time, dose: 50.0 mg/kg/injection, schedule: Q01DX001 (ip), vehicle: saline
smiles,measurement,setting,value
Cc1cc(C)c(NC(=O)N(CCCl)N=O)c(C)c1,T/C,"endpoint: mean survival time, dose: 11.25 mg/kg/injection, schedule: Q01DX001 (ip), vehicle: other",155 % of control
same,T/C,"endpoint: mean survival time, dose: 15.0 mg/kg/injection, schedule: Q01DX001 (ip), vehicle: other",150 % of control
same,T/C,"endpoint: mean survival time, dose: 16.0 mg/kg/injection, schedule: Q01DX001 (ip), vehicle: other",174 % of control
same,T/C,"endpoint: mean survival time, dose: 20.0 mg/kg/injection, schedule: Q01DX001 (ip), vehicle: other",203 % of control
same,T/C,"endpoint: mean survival time, dose: 22.5 mg/kg/injection, schedule: Q01DX001 (ip), vehicle: other",234 % of control
same,T/C,"endpoint: mean survival time, dose: 25.0 mg/kg/injection, schedule: Q01DX001 (ip), vehicle: other",166 % of control
same,T/C,"endpoint: mean survival time, dose: 30.0 mg/kg/injection, schedule: Q01DX001 (ip), vehicle: other",191 % of control
same,T/C,"endpoint: mean survival time, dose: 31.0 mg/kg/injection, schedule: Q01DX001 (ip), vehicle: other",165 % of control
same,T/C,"endpoint: mean survival time, dose: 38.0 mg/kg/injection, schedule: Q01DX001 (ip), vehicle: other",201 % of control
same,T/C,"endpoint: mean survival time, dose: 45.0 mg/kg/injection, schedule: Q01DX001 (ip), vehicle: other",252 % of control and 322 % of control
same,T/C,"endpoint: mean survival time, dose: 57.0 mg/kg/injection, schedule: Q01DX001 (ip), vehicle: other",262 % of control
same,T/C,"endpoint: mean survival time, dose: 62.0 mg/kg/injection, schedule: Q01DX001 (ip), vehicle: other",217 % of control
same,T/C,"endpoint: mean survival time, dose: 86.0 mg/kg/injection, schedule: Q01DX001 (ip), vehicle: other",227 % of control
same,T/C,"endpoint: mean survival time, dose: 90.0 mg/kg/injection, schedule: Q01DX001 (ip), vehicle: other",100 % of control
Nc1c(Cl)cc2c(c1Cl)Cc1c-2cc(Br)c(N)c1Br,T/C,"endpoint: median survival time, dose: 5.0 mg/kg/injection, schedule: Q04DX003 (ip), vehicle: saline",121 % of control
same,T/C,"endpoint: median survival time, dose: 10.0 mg/kg/injection, schedule: Q04DX003 (ip), vehicle: saline",153 % of control
same,T/C,"endpoint: median survival time, dose: 20.0 mg/kg/injection, schedule: Q04DX003 (ip), vehicle: saline",180 % of control
same,T/C,"endpoint: median survival time, dose: 40.0 mg/kg/injection, schedule: Q04DX003 (ip), vehicle: saline",223 % of control
same,T/C,"endpoint: median survival time, dose: 50.0 mg/kg/injection, schedule: Q07DX003 (ip), vehicle: saline",211 % of control
same,T/C,"endpoint: median survival time, dose: 80.0 mg/kg/injection, schedule: Q04DX003 (ip), vehicle: saline",223 % of control
same,T/C,"endpoint: median survival time, dose: 100.0 mg/kg/injection, schedule: Q07DX003 (ip), vehicle: saline",202 % of control
same,T/C,"endpoint: median survival time, dose: 200.0 mg/kg/injection, schedule: Q07DX003 (ip), vehicle: saline",54 % of control
same,T/C,"endpoint: median survival time, dose: 400.0 mg/kg/injection, schedule: Q07DX003 (ip), vehicle: saline",53 % of control
CCc1cccc(CC)c1N=Cc1ccccc1O,T/C,"endpoint: mean survival time, dose: 100.0 mg/kg/injection, schedule: Q01DX009 (ip), vehicle: carboxymethylcellulose (CMC)",98 % of control and 102 % of control
same,T/C,"endpoint: mean survival time, dose: 100.0 mg/kg/injection, schedule: Q04DX002 (ip), vehicle: carboxymethylcellulose (CMC)",93 % of control and 101 % of control
same,T/C,"endpoint: mean survival time, dose: 100.0 mg/kg/injection, schedule: Q04DX003 (ip), vehicle: carboxymethylcellulose (CMC)",98 % of control
same,T/C,"endpoint: mean survival time, dose: 200.0 mg/kg/injection, schedule: Q01DX009 (ip), vehicle: carboxymethylcellulose (CMC)",93 % of control and 98 % of control
same,T/C,"endpoint: mean survival time, dose: 200.0 mg/kg/injection, schedule: Q04DX002 (ip), vehicle: carboxymethylcellulose (CMC)",96 % of control and 102 % of control
same,T/C,"endpoint: mean survival time, dose: 200.0 mg/kg/injection, schedule: Q04DX003 (ip), vehicle: carboxymethylcellulose (CMC)",102 % of control
same,T/C,"endpoint: mean survival time, dose: 400.0 mg/kg/injection, schedule: Q01DX009 (ip), vehicle: carboxymethylcellulose (CMC)",95 % of control
same,T/C,"endpoint: mean survival time, dose: 400.0 mg/kg/injection, schedule: Q04DX002 (ip), vehicle: carboxymethylcellulose (CMC)",93 % of control and 96 % of control
same,T/C,"endpoint: mean survival time, dose: 400.0 mg/kg/injection, schedule: Q04DX003 (ip), vehicle: carboxymethylcellulose (CMC)",104 % of control
C#CCOC(C(=O)OC1CCN(C)CC1)(c1ccccc1)c1ccccc1,T/C,[1],105 % of control
same,T/C,[2],105 % of control
same,T/C,[3],97 % of control and 98 % of control
CCOC(=O)NCC(CCN1CCCCC1)(CCN1CCCCC1)c1cccc2ccccc12,T/C,"endpoint: mean survival time, dose: 100.0 mg/kg/injection, schedule: Q04DX003 (ip), vehicle: Klucel (hydroxypropylcellulose) (HPC)",107 % of control
CCC[CH2][Sn]([CH2]CC#N)([CH2]CCC)[CH2]CCC,T/C,[4],97 % of control
same,T/C,[5],94 % of control
NC(=O)c1cc(Br)ccc1O,T/C,"endpoint: mean survival time, dose: 50.0 mg/kg/injection, schedule: Q01DX009 (ip), vehicle: Klucel (hydroxypropylcellulose) (HPC)",89 % of control
same,T/C,[6],92 % of control
same,T/C,[7],95 % of control
CC(C)NC(C)C,T/C,"endpoint: mean survival time, dose: 100.0 mg/kg/injection, schedule: Q01DX001 (ip), vehicle: Klucel (hydroxypropylcellulose) (HPC)",104 % of control
same,T/C,"endpoint: mean survival time, dose: 200.0 mg/kg/injection, schedule: Q01DX001 (ip), vehicle: Klucel (hydroxypropylcellulose) (HPC)",101 % of control
same,T/C,"endpoint: mean survival time, dose: 400.0 mg/kg/injection, schedule: Q01DX001 (ip), vehicle: Klucel (hydroxypropylcellulose) (HPC)",107 % of control
COc1c(NC(=O)c2ccc([N+](=O)[O-])cc2)cccc1[N+](=O)[O-],T/C,[8],89 % of control
same,T/C,[9],95 % of control
same,T/C,[10],89 % of control
NC(=O)c1ccncc1,T/C,[11],105 % of control
same,T/C,[12],104 % of control
same,T/C,[13],98 % of control
O=C(Nc1ccc(Cl)cc1C(=O)c1ccccc1)c1ccc(Cl)cc1Cl,T/C,[8],103 % of control
same,T/C,[10],89 % of control
CCCCCCCCN,T/C,"endpoint: mean survival time, dose: 25.0 mg/kg/injection, schedule: Q01DX001 (ip), vehicle: saline",103 % of control
same,T/C,"endpoint: mean survival time, dose: 25.0 mg/kg/injection, schedule: Q01DX009 (ip), vehicle: saline",108 % of control and 111 % of control
same,T/C,[4],101 % of control and 105 % of control
same,T/C,[1],101 % of control
same,T/C,[14],101 % of control
same,T/C,"endpoint: mean survival time, dose: 50.0 mg/kg/injection, schedule: Q01DX009 (ip), vehicle: saline",104 % of control
same,T/C,[5],100 % of control and 105 % of control
same,T/C,[2],98 % of control
same,T/C,[11],94 % of control
same,T/C,"endpoint: mean survival time, dose: 100.0 mg/kg/injection, schedule: Q01DX009 (ip), vehicle: saline",111 % of control
CS(=O)(=O)n1c(CBr)nc2ccccc21,T/C,"endpoint: mean survival time, dose: 100.0 mg/kg/injection, schedule: Q04DX003 (ip), vehicle: saline sonified",103 % of control
same,T/C,"endpoint: mean survival time, dose: 200.0 mg/kg/injection, schedule: Q04DX003 (ip), vehicle: saline sonified",88 % of control
Cc1c(Cl)cccc1NC(=O)N1CCN(C)CC1,T/C,[6],98 % of control and 107 % of control
same,T/C,[8],106 % of control and 91 % of control
same,T/C,[7],109 % of control and 92 % of control
same,T/C,[9],101 % of control and 91 % of control
same,T/C,[10],110 % of control and 90 % of control
COC(=N)c1ccc(O)c(C)c1,T/C,[3],99 % of control
same,T/C,"endpoint: mean survival time, dose: 200.0 mg/kg/injection, schedule: Q04DX003 (ip), vehicle: saline",94 % of control
same,T/C,"endpoint: mean survival time, dose: 400.0 mg/kg/injection, schedule: Q04DX003 (ip), vehicle: saline",88 % of control
CC(CC(C#CC(CC(C)CC(C)(C)C)N(C)C)N(C)C)CC(C)(C)C (stereo unspecified),T/C,[6],96 % of control
same,T/C,[8],111 % of control
same,T/C,[7],93 % of control
same,T/C,[9],93 % of control
same,T/C,[10],90 % of control
CC(C)(C)C(=O)CC(=O)C(C)(C)C.CC(C)(C)C(=O)CC(=O)C(C)(C)C.CC(C)(C)C(=O)CC(=O)C(C)(C)C.[Eu],T/C,[8],97 % of control
same,T/C,[9],106 % of control
same,T/C,[10],87 % of control
O=[N+]([O-])c1cc(Cl)ccc1N1CCCC1,T/C,"endpoint: mean survival time, dose: 100.0 mg/kg/injection, schedule: Q01DX009 (ip), vehicle: saline with Tween-80",89 % of control
same,T/C,"endpoint: mean survival time, dose: 200.0 mg/kg/injection, schedule: Q01DX009 (ip), vehicle: saline with Tween-80",99 % of control
CN(CCCl)c1ccc(C2N(Cc3ccccc3)c3ccccc3N2Cc2ccccc2)cc1,T/C,"endpoint: mean survival time, dose: 6.2 mg/kg/injection, schedule: Q01DX001 (ip), vehicle: carboxymethylcellulose (CMC)",94 % of control
same,T/C,"endpoint: mean survival time, dose: 12.5 mg/kg/injection, schedule: Q01DX001 (ip), vehicle: carboxymethylcellulose (CMC)",103 % of control
Nc1c2c([nH]c(=O)c1N=O)CCC2,T/C,[14],95 % of control
same,T/C,[11],93 % of control
same,T/C,[12],95 % of control
same,T/C,[13],104 % of control
CNNC(=O)C(O)C(C)(C)CO (stereo unspecified),T/C,[11],100 % of control
same,T/C,[12],100 % of control
same,T/C,[13],102 % of control
